Measurements as given in patent publication US6013628A, “Method for treating conditions of the eye using polypeptides” (Regents of the University of Minnesota, priority 1995, dated 2000).
No end group written: not given here.

Legend:
rabbit eye = assay: Intravitreal polypeptide toxicity in rabbit eye (ERG, clinical observations, histology); assay type: in vivo
Method: The toxicity of the polypeptides was determined by three techniques:
ERG. Electroretinograms (ERG) were carried out as a functional indicator of toxicity of a polypeptide treatment. Polypeptides were injected at 200 ug and 400 ug (twice the dose that inhibited proliferative vitreoretinopathy), and ERG measurements were performed three times in each eye at various times post-injection (1 hr to 6 weeks).
Clinical observations. Observation by indirect ophthalmoscopy and slit lamp examination were performed to probe for evidence of toxicity.
Histology. Following ERG and clinical observations, the eyes were immediately enucleated, fixed in 10% formalin, paraffin embedded, sectioned at 7 microns, and stained with hematoxylin and eosin.

[1] = test system: rabbit conjunctival fibroblasts; assay: Conjunctival fibroblast proliferation, tritiated thymidine assay; assay type: cell-based; details: for Thymidine uptake: day 4, no drug control 8537 cpm
Text: The failure of gluacoma treatment by filtration surgery is most often caused by scarring. Scarring requires fibroblast proliferation and fibrosis of the subconjunctive space. Proliferation of rabbit conjunctival fibroblasts was studied using the tritiated thymidine assay, which serves as an in vitro model of fibroblast proliferation in the rabbit eye (see Invest. Ophthalmol. Vis. Sci., 31, 1848-1855 (1990)). The ability of synthetic polypeptides derived from ECM molecules to inhibit conjuntival fibroblast proliferation was examined in this model.
Rabbit conjunctival fibroblasts were plated into 96-well microtiter plates at 1000 cells/well in 200 microliters of standard fibroblast culture media. Standard fibroblast culture media include Eagle's minimal essential medium containing 15% fetal bovine serum, penicillin G 100 IU/ml, streptomycin 100 μg/ml, and amphotericin B 0.25 μg/ml. Hep-II was added to the wells in concentrations ranging from 1 μg/ml to 1000 μg/ml after removing an equal volume of media to maintain 200 microliters/well. The peptide was used in concentrations of 1, 3, 7, 10, 25, 50, 100, 200, 300, 400, 500, 600, 800 and 1000 microgram/ml (experiments 1-14, respectively in FIG. 26). The tissue culture plates were incubated at 37° C. in a humidified atmosphere of 5% carbon dioxide. Two separate sets experiments were conducted. Each set of experiments was done in replicates of four. In the first set of experiments, tritiated thymidine was added 22 hours prior to each harvesting on days 4, 5, and 8. In the second set of experiments, tritiated thymidine was added 22 hours prior to each harvesting on days 4, 5, and 6. Wells with vehicle but no test compound served as negative controls (experiment #15) and cells with mitomycin-C at 100 μg/ml served as positive controls (experiment #16).

[2] = test system: rabbit dermal fibroblasts; assay: Fibroblast-mediated collagen gel contraction (shrinkage) assay; assay type: cell-based
Text: As indicated above, proliferative vitreoretinopathy is the result of the proliferation and migration of fibroblasts, retinal pigment epithelial cells, and glial cells, and their organization into vitreous strands and epiretinal membranes. The vitreous strands and epiretinal membranes can contract, resulting in traction retinal detachment. The ability of rabbit dermal fibroblasts to cause contraction was examined in the collagen gel shrinkage model, which serves as an in vitro model of proliferative vitreoretinopathy (see Verdoon et al., Arch. Ophthalmol., 104, 1216-1219 (1986)). The ability of synthetic polypeptides derived from ECM molecules to inhibit contraction in the collagen gel shrinkage model using rabbit fibroblasts was also examined.
Fifty thousand rabbit dermal fibroblasts were suspended in 250 μl of fibroblast assay medium and mixed with 250 μl of Vitrogen and dispensed into the wells of a 48-well plate. The cells were preincubated with the desired polypeptide concentration (25, 50, 100, or 200 ug/ml) for one hour at 37° C. before mixing with the Vitrogen. Gelling occurred within 20 minutes after transfer of the mix of cell suspension and Vitrogen into an incubator at 37° C. with 5% CO2. The gels were overlaid with 250 μl of growth medium. All conditions were tested in duplicate wells. After 24 hours, the gels were detached from the sides of the wells by sweeping with a 27-gauge needle inserted at the interface between the plastic well and the gel (FIGS. 6-8).
Contraction of collagen gels was quantitated by use of planimetry. The gels were observed daily over the seven day period following detachment for evidence of contraction. The plates were photographed at the end of the seven days to record the amount of contraction. The contraction was measured by recording the area of each gel in each well off the photograph using a computer scanner. The area of the gels with polypeptide was compared to the area of the gels without the polypeptide. Planimetry is a two-dimensional measurement. […] The planimetry measurements accordingly underestimate the degree of contraction that actually occurred.
The collagen gels were cast with or without the incorporation of 25 ug/ml of fibronectin. […] These controls using deactivated cells indicate that cell growth and proliferation are required to effect gel shrinkage.

[3] = 3H-heparin; cited from earlier work

## LAGSCLARFSTM [Hep-II, Leu-Ala-Gly-Ser-Cys-Leu-Ala-Arg-Phe-Ser-Thr-Met]
Rabbit eye; 6 weeks after injection of 200 ug in 0.1 ml
  Fundus appearance: indistinguishable from the control eye
Rabbit eye; intravitreal injection of 200 ug or 400 ug
  Toxic effects by clinical observations, histopathology or ERG: No toxic effects
[1]; 800 microgram/ml
  Thymidine uptake: 580 cpm
[1]; 1000 microgram/ml
  Thymidine uptake: 589 cpm
[1]; similar to mitomycin-C
  Concentration effective in controlling fibroblast proliferation in vitro: 800-1000 microgram/ml
[2]; 200 ug type IV collagen peptide, cells preincubated 1 hr, gel surface area by planimetry at day 7, no peptide 36%
  % Contraction: 3%
[2]; gels cast with and without fibronectin
  Effect on fibroblast-mediated collagen gel contraction: most potent inhibitory effects on contraction
[3]
  Heparin binding: reported to bind heparin
